In patent US20030165919A1, “Method for the analysis of exogenic and endogenic cell activiation based on measuring the aggregation of receptors” (priority 2000, published 2003):

What was measured:
Assay type in all cases: cell-based
CD81/CD14 (×8) = target: T1, CD81/CD14 (×8) (Homo sapiens, UniProt P08571); test: FRET co-assembly of CD81 with CD14 on monocytes; conditions: LPS 4 nM, ceramide 40 nM, LTA 1 μg/ml, HSP70 7 nM, mean ± SD of 10 experiments
T1 construct: endogenous in cells; host or cells: human monocytes in whole blood (donors; also sepsis and CAD patients)
T1 sequence (P08571 20-345 limits assumed): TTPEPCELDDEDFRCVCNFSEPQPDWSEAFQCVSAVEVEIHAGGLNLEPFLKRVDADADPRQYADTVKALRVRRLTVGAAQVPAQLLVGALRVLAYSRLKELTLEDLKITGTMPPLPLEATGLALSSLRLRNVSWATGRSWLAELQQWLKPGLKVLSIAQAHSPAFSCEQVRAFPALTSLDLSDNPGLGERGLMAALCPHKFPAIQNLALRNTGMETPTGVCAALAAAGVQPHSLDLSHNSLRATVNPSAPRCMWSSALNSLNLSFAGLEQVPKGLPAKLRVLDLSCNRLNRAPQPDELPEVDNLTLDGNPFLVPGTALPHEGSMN
Procedure: (§1) Aliquots […] of whole blood were incubated with the following stimulatory compounds at 37° C. for 15 minutes: LPS of Salmonella minnesota (0.1-10 nM, Mw 10 kDa), ceramide (primarily stearic acid and nervonic acid) and sulfogalactosyl ceramide (SG-cer, […]), both of which tested LPS free in the LAL assay (Cer, 1 nM-5.5 mM), lysophosphatidyl choline (lyso-PC, 10 mM), phorbol-12-myristate-13-acetate (PMA, 1 mM), N-formyl-L-methionyl-L-leucyl-L-phenyl alamine (fMLP, 1 mM), PE, PC, PI and PS liposomes (10 mm) which had been prepared as described above. All reagents were obtained from Sigma. In addition, the cells were stimulated with HPS70 (7 nM), dHSP70 (7 nM) and SG-cer+dHSP70 (40 nM+7 nM). After incubation, the cells were washed with cold PBS containing 0.1% of NaN3. The synthetic LPS antagonist lipid IVa (“compound-406”, 1-400 ng/ml) and lipid A derived from E. coli (1-100 ng/ml) were made available by courtesy of Dr. S. Kusumoto. The cells were pre-incubated with the LPS antagonist at 37° C. for 15 minutes and then stimulated with LPS at the same temperature (without washing).
Whole blood cells which had been stimulated or washed ex vivo […] were incubated on ice for 15 minutes with saturation concentrations of monoclonal fluorochrom-conjugated or biotinylated antibodies. The monoclonal antibodies CD11a (clone 25.3.1), CD16a (clone 3G8). CD18 (clone 7E4), CD14 (clone RMO52), CD33 (clone My9-RD1). CD81 (clone Js64) were obtained as R-phyco-erythrine (R-PE) conjugates and CD25 (clone B1.49.9) in biotinylated form from Coulter/Immunotech (Krefeld, Germany). CD11b (clone d12), CD11c (clone S-HCL-3), CD36 (clone CB38), CD47 (clone B6H12), CD81 (clone JS-81) and (Cd55 (clone IA10) in biotinylated form and Streptavidin-R-PE were purchased from Becton/Dickinson/Pharningen (Heidelberg, Germany) CD18 (clone IB4) in biontinylated form and CD40 (clone EA-5) as R-PE conjugate were obtained from Alexis (Grünberg, Germany) and CD14 (clones ×8 and Uchml) and CD3 (clone Cris-7) in biotinylated form and Streptavidin-Cy5 (Sa-Cy5) from Dianova (Hamburg, Germany), CD32 (clone C1KM5) and CD64 (clone 10.1) were obtained as R-PE conjugates from Caltag (Burlingame, U.S.A.) and CD91 (clone 8G1) in biotinylated form from Proen (Heidelberg, Germany). A monoclonal anti-TLRA antibody (clone HTA125) was kindly provided by Dr. Kensuke. Since no energy transfer between the antibodies directed against the CD14/CD11a and CD14/CD11c pairs was detectable either on resting or on stimulated cells, these antibody combinations were not characterised further. […]

CD11b and CD14 = target: T2, CD11b and CD14 (Homo sapiens, UniProt P08571); test: FRET flow cytometry: co-assembly of CD11b and CD14 on monocytes
T2 construct: endogenous in cells; host or cells: human monocytes in heparinised whole blood (healthy donors and patients)
T2 sequence (P08571 20-345 limits assumed): T1 sequence (P08571 20-345 limits assumed)
Procedure: as §1
Whole blood cells which had been stimulated or washed ex vivo […] were incubated on ice for 15 minutes with saturation concentrations of monoclonal fluorochrom-conjugated or biotinylated antibodies. The monoclonal antibodies CD11a (clone 25.3.1), CD16a (clone 3G8). CD18 (clone 7E4), CD14 (clone RMO52), CD33 (clone My9-RD1). CD81 (clone Js64) were obtained as R-phyco-erythrine (R-PE) conjugates and CD25 (clone B1.49.9) in biotinylated form from Coulter/Immunotech (Krefeld, Germany). CD11b (clone d12), CD11c (clone S-HCL-3), CD36 (clone CB38), CD47 (clone B6H12), CD81 (clone JS-81) and (Cd55 (clone IA10) in biotinylated form and Streptavidin-R-PE were purchased from Becton/Dickinson/Pharningen (Heidelberg, Germany) CD18 (clone IB4) in biontinylated form and CD40 (clone EA-5) as R-PE conjugate were obtained from Alexis (Grünberg, Germany) and CD14 (clones ×8 and Uchml) and CD3 (clone Cris-7) in biotinylated form and Streptavidin-Cy5 (Sa-Cy5) from Dianova (Hamburg, Germany), CD32 (clone C1KM5) and CD64 (clone 10.1) were obtained as R-PE conjugates from Caltag (Burlingame, U.S.A.) and CD91 (clone 8G1) in biotinylated form from Proen (Heidelberg, Germany). A monoclonal anti-TLRA antibody (clone HTA125) was kindly provided by Dr. Kensuke. Since no energy transfer between the antibodies directed against the CD14/CD11a and CD14/CD11c pairs was detectable either on resting or on stimulated cells, these antibody combinations were not characterised further.
Lysis of erythrocytes and washing were carried out as described (Rothe et al., Thromb. Vasc. Biol. 16 (1996), 1437-1447). After the last washing step, the samples were divided and part of each sample incubated with a saturating amount of SA-Cy5 on ice for 15 minutes and washed before measuring.
For energy transfer experiments, […] aliquots of whole blood were treated with cholesterol/methyl cyclodextrine (C/C) (100 mg/ml/4.6 mg/ml) or 2-hydroxypropyl-β-cyclodextrine (0.15 mg/ml) at 37° C. for 30 minutes and then stimulated further with LPS (4 nM) or ceramide (40 nM) as described above. The energy transfer between CD14 and CD11b was measured.
A “FACSCalibur” flow cytometer (Becton Dickinson) equipped with an air-cooled 15 mW argon laser (excitation wavelength 488 nm), a diode laser (excitation wavelength […]) and standard filters [channel 1 (FITC): 530/30 nm band pass filter; channel 2 (R-PE being used as donor dye); 585/47 nm band pass filter; channel 3 (PerCP): pass having a length of >670 nm; and channel 4 (Cy5being used as recipient dye): 661/16 nm bad pass filter] was used. The Cellquest software (Becton Dickinson) was used for the measurements. […] Measurement was conducted without compensation. 50,000 leukocytes were required in the “list” modus, forward scattering (FSC) being used as a trigger signal. […]

CD16/CD14 (Uchm1) = target: T3, CD16/CD14 (Uchm1) (Homo sapiens, UniProt P08571); test: FRET co-assembly of CD16 with CD14 on monocytes; conditions: LPS 4 nM, ceramide 40 nM, LTA 1 μg/ml; mean ± SD of 10 experiments; >5% = positive transfer
T3 construct: endogenous in cells; host or cells: human monocytes in whole blood
T3 sequence (P08571 20-345 limits assumed): T1 sequence (P08571 20-345 limits assumed)
Procedure: as §1
(§2) Whole blood cells which had been stimulated or washed ex vivo […] were incubated on ice for 15 minutes with saturation concentrations of monoclonal fluorochrom-conjugated or biotinylated antibodies. The monoclonal antibodies CD11a (clone 25.3.1), CD16a (clone 3G8). […]

CD32/CD14 (Uchm1) = target: T4, CD32/CD14 (Uchm1) (Homo sapiens, UniProt P08571); test: FRET co-assembly of CD32 with CD14 on monocytes; conditions: LPS 4 nM, ceramide 40 nM, LTA 1 μg/ml, HSP70 7 nM; mean ± SD of 10 experiments; >5% = positive transfer
T4 construct: endogenous in cells; host or cells: human monocytes in whole blood
T4 sequence (P08571 20-345 limits assumed): T1 sequence (P08571 20-345 limits assumed)
Procedure: as §1, §2

CD64/CD14 (Uchm1) = target: T5, CD64/CD14 (Uchm1) (Homo sapiens, UniProt P08571); test: FRET co-assembly of CD64 with CD14 on monocytes; conditions: LPS 4 nM, ceramide 40 nM, LTA 1 μg/ml, HSP70 7 nM; mean ± SD of 10 experiments; >5% = positive transfer
T5 construct: endogenous in cells; host or cells: human monocytes in whole blood
T5 sequence (P08571 20-345 limits assumed): T1 sequence (P08571 20-345 limits assumed)
Procedure: as §1, §2

CD47/CD14 (Uchm1) = target: T6, CD47/CD14 (Uchm1) (Homo sapiens, UniProt P08571); test: FRET co-assembly of CD47 with CD14 on monocytes; conditions: LPS 4 nM, ceramide 40 nM, LTA 1 μg/ml; mean ± SD of 10 experiments; >5% = positive transfer
T6 construct: endogenous in cells; host or cells: human monocytes in whole blood
T6 sequence (P08571 20-345 limits assumed): T1 sequence (P08571 20-345 limits assumed)
Procedure: as §1, §2

CD36/CD14 (×8) = target: T7, CD36/CD14 (×8) (Homo sapiens, UniProt P08571); test: FRET co-assembly of CD36 with CD14 on monocytes; conditions: LPS 4 nM, ceramide 40 nM, LTA 1 μg/ml, HSP70 7 nM; mean ± SD of 10 experiments; >5% = positive transfer
T7 construct: endogenous in cells; host or cells: human monocytes in whole blood
T7 sequence (P08571 20-345 limits assumed): T1 sequence (P08571 20-345 limits assumed)
Procedure: as §1, §2

TLR-4/CD14 (×8) = target: T8, TLR-4/CD14 (×8) (Homo sapiens, UniProt P08571); test: FRET co-assembly of TLR-4 with CD14 on monocytes; conditions: LPS 4 nM, ceramide 40 nM, LTA 1 μg/ml, HSP70 7 nM; mean ± SD of 10 experiments; >5% = positive transfer
T8 construct: endogenous in cells; host or cells: human monocytes in whole blood
T8 sequence (P08571 20-345 limits assumed): T1 sequence (P08571 20-345 limits assumed)
Procedure: as §1, §2

CD55/CD14 (Uchm1) = target: T9, CD55/CD14 (Uchm1) (Homo sapiens, UniProt P08571); test: FRET co-assembly of CD55 with CD14 on monocytes; conditions: LPS 4 nM, ceramide 40 nM, LTA 1 μg/ml, HSP70 7 nM; mean ± SD of 10 experiments; >5% = positive transfer
T9 construct: endogenous in cells; host or cells: human monocytes in whole blood
T9 sequence (P08571 20-345 limits assumed): T1 sequence (P08571 20-345 limits assumed)
Procedure: as §1, §2

CD18(7E4)/CD14 (×8) = target: T10, CD18(7E4)/CD14 (×8) (Homo sapiens, UniProt P08571); test: FRET co-assembly of CD18 with CD14 on monocytes; conditions: LPS 4 nM, ceramide 40 nM, LTA 1 μg/ml, HSP70 7 nM; mean ± SD of 10 experiments; >5% = positive transfer
T10 construct: endogenous in cells; host or cells: human monocytes in whole blood
T10 sequence (P08571 20-345 limits assumed): T1 sequence (P08571 20-345 limits assumed)
Procedure: as §1, §2

Substance: ceramide
- energy transfer CD81 (JS-81)/CD14 (×8) (CD81/CD14 (×8); CD81 clone JS-81): 3.1 ± 2.4%
- energy transfer CD81 (Js64)/CD14 (×8) (CD81/CD14 (×8); CD81 clone Js64): 2.8 ± 0.7%
- co-assembly of CD11b and CD14 (energy transfer between monoclonal antibodies) (CD11b and CD14; human monocytes in whole blood, stimulation with the substance alone, 37° C. 15 minutes): induces the transfer of CD14 into a receptor cluster
- EC50 (CD11b and CD14; human monocytes, FIG. 1b, read-out: EC50cer, ceramide-induced energy transfer between antibodies against CD11b and CD14 (clone ×8)): ~0.1 nM
- energy transfer CD16/CD14 (Uchm1) (CD16/CD14 (Uchm1)): 3.2 ± 5.6%
- energy transfer CD32/CD14 (Uchm1) (CD32/CD14 (Uchm1)): 11.6 ± 3.4%
- energy transfer CD64/CD14 (Uchm1) (CD64/CD14 (Uchm1)): 10.4 ± 1.3%
- energy transfer CD47/CD14 (Uchm1) (CD47/CD14 (Uchm1)): 11.9 ± 3.1%
- energy transfer CD36/CD14 (×8) (CD36/CD14 (×8)): 10.1 ± 1.0 %
- energy transfer TLR-4/CD14 (×8) (TLR-4/CD14 (×8)): 3.2 ± 2.5%
- energy transfer CD55/CD14 (Uchm1) (CD55/CD14 (Uchm1)): 9.7 ± 1.5%
- energy transfer CD18(7E4)/CD14 (×8) (CD18(7E4)/CD14 (×8)): 5.4 ± 0.8 %
